From patent US10800754B2, “Heterocyclic amide compound” (TAKEDA PHARMACEUTICAL COMPANY LIMITED, priority 2016, dated 2020)

Target: T1, human PRS protein (Homo sapiens, UniProt P07814)
T1 construct: to construct His-Avi-hEPRS (998-1512) expression plasmid; His tag (N); Avi tag (N); TEV cleavage site (ENLYFQ/GS, encoded by forward primer hEPRS-TEV-NheF) (N); made in house; host or cells: E. coli BL21(DE3)
T1 sequence (P07814 998-1512): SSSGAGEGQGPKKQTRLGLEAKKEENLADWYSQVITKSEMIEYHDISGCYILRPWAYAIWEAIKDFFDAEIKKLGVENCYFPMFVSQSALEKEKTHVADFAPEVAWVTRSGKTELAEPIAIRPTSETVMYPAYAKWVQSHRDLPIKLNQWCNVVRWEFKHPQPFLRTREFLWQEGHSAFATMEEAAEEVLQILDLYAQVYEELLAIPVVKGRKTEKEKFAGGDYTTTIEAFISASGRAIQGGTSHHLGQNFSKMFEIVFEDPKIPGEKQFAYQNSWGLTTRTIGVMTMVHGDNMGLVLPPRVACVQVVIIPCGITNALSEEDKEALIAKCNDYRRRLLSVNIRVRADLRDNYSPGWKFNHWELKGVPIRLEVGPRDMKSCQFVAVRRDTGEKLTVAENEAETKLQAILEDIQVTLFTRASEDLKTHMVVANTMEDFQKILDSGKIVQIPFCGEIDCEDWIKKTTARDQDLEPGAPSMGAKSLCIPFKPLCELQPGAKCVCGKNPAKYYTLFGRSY
Experiment: PRS inhibitory activity (ATP/[32P]pyrophosphate exchange enzyme reaction)
Type: biochemical
Settings: 300 nM test compound; recombinant human PRS (EPRS 998-1512); read-out: inhibitory rate (%) of PRS
Procedure: The PRS inhibitory activity of the compounds of the present invention was evaluated by the following method.
An expression plasmid of Catalytic Domain of human EPRS was obtained by PCR using human skeletal muscle cDNA Library (Takara Bio Inc.) as a template and 2 kinds of Primers 5′-[…]-3′ (hEPRS-TEV-NheF) (SEQ ID NO: 1) and 5′-[…]-3′ (hEPRS-St-Not-R) (SEQ ID NO: 2). PCR was performed using PrimeStar GXL DNA Polymerase (Takara Bio Inc.) and included (1) 98° C., 1 min, (2) cycles of 98° C., 10 sec, 65° C., 10 sec, 72° C., 1 min, and (3) reaction at 72° C., 1 min. This was cleaved with Nhe I and Not I (Takara Bio Inc.) and inserted using Ligation High (TOYOBO CO., LTD.) into the Nhe I/Not I site of pET21a (Novagen) with His-Avitag inserted thereinto. This was introduced into ECOS JM109 (NIPPON GENE CO., LTD.) to construct His-Avi-hEPRS (998-1512) expression plasmid.
Recombinant human PRS protein was prepared by transforming the His-Avi-hEPRS (998-1512) expression plasmid prepared above into ECOS Competent E. coli BL21(DE3) (NIPPON GENE CO., LTD.). Escherichia coli obtained by transformation was inoculated into 300 mL of LB medium (1% peptone, 0.5% yeast extract, 0.5% sodium chloride, 0.01% ampicillin) and cultured at 30° C. for 16 hr. The obtained culture medium was transferred into a jar culture tank charged with 6 L of the main fermentation medium (0.3% potassium dihydrogen phosphate, 0.6% disodium hydrogen phosphate, 0.1% ammonium chloride, 0.05% sodium chloride, 0.024% magnesium sulfate, 0.02% NEWPOL LB-625, 1.5% sorbitol, 1.5% casamino acid, 0.5% yeast extract, 0.01% ampicillin) and culturing was started at 37° C., quantity of airflow 5 L/min, stirring rotating speed 400 rpm. At the time point when the turbidity of the culture medium reached about 550 Klett units, the culture temperature was lowered to 16° C., isopropyl-β-D-thiogalactopyranoside (IPTG) was added to the final concentration 0.1 mM, and culturing was performed for another 16 hr to induce expression of human PRS. After completion of culturing, the culture medium was centrifuged at 5,000 rpm for 10 min. The obtained human PRS expressing Escherichia coli was suspended in a buffer containing 50 mM Tris-HCl (pH 8.0), 150 mM NaCl, 1 mM DTT, 5 U/ml Benzonase, 20 mM Imidazole and sonicated using Sonifier (BRANSON). The homogenate was centrifuged (33,000×G, 60 min, Beckman Coulter), the obtained supernatant was subjected to adsorption by passage through Ni-NTA Superflow (QIAGEN) column equilibrated in advance with 50 mM Tris-HCl (pH 8.0), 300 mM NaCl, 1 mM DTT, and elution was performed with a buffer containing 50 mM Tris-HCl (pH 8.0), 300 mM NaCl, 1 mM DTT, 250 mM Imidazole. Furthermore, gel filtration was performed using […] equilibrated in advance with a buffer containing 50 mM Tris-HCl (pH 8.0), 150 mM NaCl, 1 mM DTT, 10% glycerol to give purified human PRS protein. The protein concentration was measured using BCA Protein Assay Kit (PIERCE) and BSA as the standard.
A test compound was dissolved in 5 μL of an assay buffer (50 mM Tris-HCl (pH 7.5), 20 mM KCl, 1 mM DTT, 0.01% Tween 20) and incubated for 60 min with 5 μL of 40 nM human PRS protein dissolved in the assay buffer containing 40 mM MgCl2. An enzyme reaction of the human PRS protein was started by adding 10 μL of a substrate solution containing 300 μM ATP, 160 μM L-Proline, 400 μM pyrophosphate, [^32P]pyrophosphate (PerkinElmer, Waltham, Mass.) prepared to 1 MBq/mL. After incubation at room temperature for 30 min, the reaction was discontinued by adding 50 μL of discontinuation/washing solution (1M HCl, 200 mM sodium pyrophosphate) to the reaction mixture. The reaction solution was transferred to a filter plate (Merck Millipore, Billerica, Mass.) previously added with 200 μL of charcoal solution (0.5% HCl solution containing 10% charcoal (w/v)). […]

N#C[C@@]1(C2CC2)CCN(c2ccnc(NC(=O)Cc3cccc(-c4cnn(CC(C(F)(F)F)C(F)(F)F)c4)c3)c2)C1=O [Example 92, N-(4-((3S)-3-cyano-3-cyclopropyl-2-oxopyrrolidin-1-yl)pyridin-2-yl)-2-(3-(1-(3,3,3-trifluoro-2-(trifluoromethyl)propyl)-1H-pyrazol-4-yl)phenyl)acetamide]
inhibition at 0.3 µM: 93%

N#C[C@@]1(C2CC2)CCN(c2ccnc(NC(=O)Cc3ccccc3F)c2)C1=O [Example 14, N-(4-((3S)-3-cyano-3-cyclopropyl-2-oxopyrrolidin-1-yl)pyridin-2-yl)-2-(2-fluorophenyl)acetamide]
inhibition at 0.3 µM: 70%

Cc1cc(N2CC[C@@](C#N)(C3CC3)C2=O)nc(NC(=O)Cc2ccccc2)n1 [Example 131, N-(4-((3S)-3-cyano-3-cyclopropyl-2-oxopyrrolidin-1-yl)-6-methylpyrimidin-2-yl)-2-phenylacetamide]
inhibition at 0.3 µM: 89%

C=CC[C@]1(C#N)CCN(c2ccnc(NC(=O)Cc3cccc(-c4cnn(C)c4)c3)c2)C1=O [Example 22, N-(4-((3R)-3-allyl-3-cyano-2-oxopyrrolidin-1-yl)pyridin-2-yl)-2-(3-(1-methyl-1H-pyrazol-4-yl)phenyl)acetamide]
inhibition at 0.3 µM: 87%

N#C[C@@]1(C2CC2)CCN(c2ccnc(NC(=O)Cc3cccc4ccccc34)c2)C1=O [Example 3, N-(4-((3S)-3-cyano-3-cyclopropyl-2-oxopyrrolidin-1-yl)pyridin-2-yl)-2-(1-naphthyl)acetamide]
inhibition at 0.3 µM: 93%

N#C[C@@]1(C2CC2)CCN(c2ccnc(NC(=O)Cc3cccc(Cl)c3)c2)C1=O [Example 1, 2-(3-chlorophenyl)-N-(4-((3S)-3-cyano-3-cyclopropyl-2-oxopyrrolidin-1-yl)pyridin-2-yl)acetamide]
inhibition at 0.3 µM: 84%

N#C[C@@]1(C2CC2)CCN(c2ccnc(NC(=O)Cc3cccc(-c4cnn(CCc5ccccc5)c4)c3)c2)C1=O [Example 88, N-(4-((3S)-3-cyano-3-cyclopropyl-2-oxopyrrolidin-1-yl)pyridin-2-yl)-2-(3-(1-(2-phenylethyl)-1H-pyrazol-4-yl)phenyl)acetamide]
inhibition at 0.3 µM: 97%

N#C[C@@]1(C2CC2)CCN(c2ccnc(NC(=O)Cc3cccc(-c4cnn(CC5CCCO5)c4)c3)c2)C1=O (stereo partly drawn) [Example 76, N-(4-((3S)-3-cyano-3-cyclopropyl-2-oxopyrrolidin-1-yl)pyridin-2-yl)-2-(3-(1-(tetrahydrofuran-2-ylmethyl)-1H-pyrazol-4-yl)phenyl)acetamide]
inhibition at 0.3 µM: 98%

N#C[C@@]1(C2CC2)CCN(c2ccnc(NC(=O)Cc3cccc4ccccc34)n2)C1=O [Example 128, N-(4-((3S)-3-cyano-3-cyclopropyl-2-oxopyrrolidin-1-yl)pyrimidin-2-yl)-2-(1-naphthyl)acetamide]
inhibition at 0.3 µM: 95%

N#C[C@@]1(C2CC2)CCN(c2ccnc(NC(=O)Cc3ccsc3)c2)C1=O [Example 15, N-(4-((3S)-3-cyano-3-cyclopropyl-2-oxopyrrolidin-1-yl)pyridin-2-yl)-2-(3-thienyl)acetamide]
inhibition at 0.3 µM: 84%

N#C[C@@]1(C2CC2)CCN(c2ccnc(NC(=O)Cc3ccccc3Cl)c2)C1=O [Example 5, 2-(2-chlorophenyl)-N-(4-((3S)-3-cyano-3-cyclopropyl-2-oxopyrrolidin-1-yl)pyridin-2-yl)acetamide]
inhibition at 0.3 µM: 62%

N#C[C@@]1(C2CC2)CCN(c2ccnc(NC(=O)Cc3csc4ccccc34)c2)C1=O [Example 28, 2-(1-benzothiophen-3-yl)-N-(4-((3S)-3-cyano-3-cyclopropyl-2-oxopyrrolidin-1-yl)pyridin-2-yl)acetamide]
inhibition at 0.3 µM: 94%

N#C[C@@]1(C2CC2)CCN(c2ccnc(NC(=O)Cc3cccc(-c4cnn(CC5CCCC5)c4)c3)c2)C1=O [Example 75, N-(4-((3S)-3-cyano-3-cyclopropyl-2-oxopyrrolidin-1-yl)pyridin-2-yl)-2-(3-(1-(cyclopentylmethyl)-1H-pyrazol-4-yl)phenyl)acetamide]
inhibition at 0.3 µM: 97%

N#C[C@@]1(C2CC2)CCN(c2ccnc(NC(=O)Cc3cccc(-c4cnn(CC(N)=O)c4)c3)c2)C1=O [Example 69, 2-(3-(1-(2-amino-2-oxoethyl)-1H-pyrazol-4-yl)phenyl)-N-(4-((3S)-3-cyano-3-cyclopropyl-2-oxopyrrolidin-1-yl)pyridin-2-yl)acetamide]
inhibition at 0.3 µM: 99%

Cc1cccc(CC(=O)Nc2cc(N3CC[C@@](C#N)(C4CC4)C3=O)ccn2)c1 [Example 11, N-(4-((3S)-3-cyano-3-cyclopropyl-2-oxopyrrolidin-1-yl)pyridin-2-yl)-2-(3-methylphenyl)acetamide]
inhibition at 0.3 µM: 85%

N#C[C@@]1(C2CC2)CCN(c2cc(NC(=O)Cc3ccccc3)ncn2)C1=O [Example 127, N-(6-((3S)-3-cyano-3-cyclopropyl-2-oxopyrrolidin-1-yl)pyrimidin-4-yl)-2-phenylacetamide]
inhibition at 0.3 µM: 65%

COc1cc(N2CC[C@@](C#N)(C3CC3)C2=O)cc(NC(=O)Cc2cccc(-c3cnn(C)c3)c2)n1 [Example 62, N-(4-((3S)-3-cyano-3-cyclopropyl-2-oxopyrrolidin-1-yl)-6-methoxypyridin-2-yl)-2-(3-(1-methyl-1H-pyrazol-4-yl)phenyl)acetamide]
inhibition at 0.3 µM: 92%

N#C[C@@]1(C2CC2)CCN(c2ccnc(NC(=O)Cc3cccc(F)c3)c2)C1=O [Example 13, N-(4-((3S)-3-cyano-3-cyclopropyl-2-oxopyrrolidin-1-yl)pyridin-2-yl)-2-(3-fluorophenyl)acetamide]
inhibition at 0.3 µM: 89%

C=CC[C@]1(C#N)CCN(c2ccnc(NC(=O)Cc3cccc(-c4ccncc4)c3)c2)C1=O [Example 25, N-(4-((3R)-3-allyl-3-cyano-2-oxopyrrolidin-1-yl)pyridin-2-yl)-2-(3-(pyridin-4-yl)phenyl)acetamide]
inhibition at 0.3 µM: 61%

N#C[C@@]1(C2CC2)CCN(c2ccnc(NC(=O)Cc3cccc(-c4ccccc4)c3)c2)C1=O [Example 9, 2-(biphenyl-3-yl)-N-(4-((3S)-3-cyano-3-cyclopropyl-2-oxopyrrolidin-1-yl)pyridin-2-yl)acetamide]
inhibition at 0.3 µM: 94%
